Experimental data as given in paper PMC11420776 (RSC Advances, 2024).

Tests used:
[1] = test system: HCT-15 (colon cancer); experiment: NCI 60-cell one-dose antiproliferative screen; type: cell-based, human; conditions: one dose 10 μM
[2] = test system: KM12 (colon cancer); experiment: NCI 60-cell one-dose antiproliferative screen; type: cell-based, human; conditions: one dose 10 μM
[3] = test system: NCI-H460 (NSC lung cancer); experiment: NCI 60-cell one-dose antiproliferative screen; type: cell-based, human; conditions: one dose 10 μM
[4] = test system: SW-620 (colon cancer); experiment: NCI 60-cell one-dose antiproliferative screen; type: cell-based, human; conditions: one dose 10 μM
[5] = test system: OVCAR-3 (ovarian cancer); experiment: NCI 60-cell one-dose antiproliferative screen; type: cell-based, human; conditions: one dose 10 μM
[6] = test system: DU-145 (prostate cancer); experiment: NCI 60-cell one-dose antiproliferative screen; type: cell-based, human; conditions: one dose 10 μM
[7] = test system: SK-MEL-2 (melanoma); experiment: NCI 60-cell one-dose antiproliferative screen; type: cell-based, human; conditions: one dose 10 μM
[8] = test system: SF-295 (CNS cancer); experiment: NCI 60-cell one-dose antiproliferative screen; type: cell-based, human; conditions: one dose 10 μM
[9] = test system: SK-OV-3 (ovarian cancer); experiment: NCI 60-cell one-dose antiproliferative screen; type: cell-based, human; conditions: one dose 10 μM
[10] = test system: MDA-MB-435 (melanoma); experiment: NCI 60-cell one-dose antiproliferative screen; type: cell-based, human; conditions: one dose 10 μM
[11] = test system: RPMI-8226 (leukemia); experiment: NCI 60-cell one-dose antiproliferative screen; type: cell-based, human; conditions: one dose 10 μM
[12] = test system: HOP-92 (NSC lung cancer); experiment: NCI 60-cell one-dose antiproliferative screen; type: cell-based, human; conditions: one dose 10 μM
[13] = test system: NCI-H522 (NSC lung cancer); experiment: NCI 60-cell one-dose antiproliferative screen; type: cell-based, human; conditions: one dose 10 μM
[14] = test system: UO-31 (renal cancer); experiment: NCI 60-cell one-dose antiproliferative screen; type: cell-based, human; conditions: one dose 10 μM
[15] = test system: OVCAR-8 (ovarian cancer); experiment: NCI 60-cell one-dose antiproliferative screen; type: cell-based, human; conditions: one dose 10 μM
[16] = test system: HT29 (colon cancer); experiment: NCI 60-cell one-dose antiproliferative screen; type: cell-based, human; conditions: one dose 10 μM
[17] = test system: UACC-62 (melanoma); experiment: NCI 60-cell one-dose antiproliferative screen; type: cell-based, human; conditions: one dose 10 μM
[18] = test system: PC-3 (prostate cancer); experiment: NCI 60-cell one-dose antiproliferative screen; type: cell-based, human; conditions: one dose 10 μM
[19] = test system: OVCAR-5 (ovarian cancer); experiment: NCI 60-cell one-dose antiproliferative screen; type: cell-based, human; conditions: one dose 10 μM
[20] = test system: MCF7 (breast cancer); experiment: NCI 60-cell one-dose antiproliferative screen; type: cell-based, human; conditions: one dose 10 μM
[21] = test system: SF-268 (CNS cancer); experiment: NCI 60-cell one-dose antiproliferative screen; type: cell-based, human; conditions: one dose 10 μM
[22] = test system: CAKI-1 (renal cancer); experiment: NCI 60-cell one-dose antiproliferative screen; type: cell-based, human; conditions: one dose 10 μM
[23] = test system: MDA-MB-468 (breast cancer); experiment: NCI 60-cell one-dose antiproliferative screen; type: cell-based, human; conditions: one dose 10 μM
[24] = test system: MALME-3M (melanoma); experiment: NCI 60-cell one-dose antiproliferative screen; type: cell-based, human; conditions: one dose 10 μM
[25] = test system: HCT-116 (colon cancer); experiment: NCI 60-cell one-dose antiproliferative screen; type: cell-based, human; conditions: one dose 10 μM
[26] = test system: 786-0 (renal cancer); experiment: NCI 60-cell one-dose antiproliferative screen; type: cell-based, human; conditions: one dose 10 μM
[27] = test system: SK-MEL-28 (melanoma); experiment: NCI 60-cell one-dose antiproliferative screen; type: cell-based, human; conditions: one dose 10 μM
[28] = test system: CCRF-CEM (leukemia); experiment: NCI 60-cell one-dose antiproliferative screen; type: cell-based, human; conditions: one dose 10 μM
[29] = test system: TK-10 (renal cancer); experiment: NCI 60-cell one-dose antiproliferative screen; type: cell-based, human; conditions: one dose 10 μM
[30] = test system: NCI-H23 (NSC lung cancer); experiment: NCI 60-cell one-dose antiproliferative screen; type: cell-based, human; conditions: one dose 10 μM
[31] = test system: 60 human tumor cell lines; experiment: NCI 60-cell one-dose antiproliferative screen, whole panel; type: cell-based; conditions: Homo sapiens, 60 cell, read-out: Mean inhibition (mean GI%)
[32] = test system: A498 (renal cancer); experiment: NCI 60-cell one-dose antiproliferative screen; type: cell-based, human; conditions: one dose 10 μM
[33] = test system: NCI/ADR-RES (ovarian cancer); experiment: NCI 60-cell one-dose antiproliferative screen; type: cell-based, human; conditions: one dose 10 μM
[34] = test system: MDA-MB-231/ATCC (breast cancer); experiment: NCI 60-cell one-dose antiproliferative screen; type: cell-based, human; conditions: one dose 10 μM
[35] = test system: RXF 393 (renal cancer); experiment: NCI 60-cell one-dose antiproliferative screen; type: cell-based, human; conditions: one dose 10 μM
[36] = test system: HOP-62 (NSC lung cancer); experiment: NCI 60-cell one-dose antiproliferative screen; type: cell-based, human; conditions: one dose 10 μM
[37] = test system: ACHN (renal cancer); experiment: NCI 60-cell one-dose antiproliferative screen; type: cell-based, human; conditions: one dose 10 μM
[38] = test system: HCC-2998 (colon cancer); experiment: NCI 60-cell one-dose antiproliferative screen; type: cell-based, human; conditions: one dose 10 μM
[39] = test system: LOX IMIV (melanoma); experiment: NCI 60-cell one-dose antiproliferative screen; type: cell-based, human; conditions: one dose 10 μM
[40] = test system: M14 (melanoma); experiment: NCI 60-cell one-dose antiproliferative screen; type: cell-based, human; conditions: one dose 10 μM
[41] = test system: A549/ATCC (NSC lung cancer); experiment: NCI 60-cell one-dose antiproliferative screen; type: cell-based, human; conditions: one dose 10 μM
[42] = test system: OVCAR-4 (ovarian cancer); experiment: NCI 60-cell one-dose antiproliferative screen; type: cell-based, human; conditions: one dose 10 μM
[43] = test system: U251 (CNS cancer); experiment: NCI 60-cell one-dose antiproliferative screen; type: cell-based, human; conditions: one dose 10 μM
[44] = test system: NCI-H322M (NSC lung cancer); experiment: NCI 60-cell one-dose antiproliferative screen; type: cell-based, human; conditions: one dose 10 μM
[45] = test system: NCI-H226 (NSC lung cancer); experiment: NCI 60-cell one-dose antiproliferative screen; type: cell-based, human; conditions: one dose 10 μM
[46] = test system: IGROV1 (ovarian cancer); experiment: NCI 60-cell one-dose antiproliferative screen; type: cell-based, human; conditions: one dose 10 μM
[47] = test system: SF-539 (CNS cancer); experiment: NCI 60-cell one-dose antiproliferative screen; type: cell-based, human; conditions: one dose 10 μM
[48] = test system: HS 578T (breast cancer); experiment: NCI 60-cell one-dose antiproliferative screen; type: cell-based, human; conditions: one dose 10 μM
[49] = test system: SNB-75 (CNS cancer); experiment: NCI 60-cell one-dose antiproliferative screen; type: cell-based, human; conditions: one dose 10 μM
[50] = test system: EKVX (NSC lung cancer); experiment: NCI 60-cell one-dose antiproliferative screen; type: cell-based, human; conditions: one dose 10 μM
[51] = test system: SN12C (renal cancer); experiment: NCI 60-cell one-dose antiproliferative screen; type: cell-based, human; conditions: one dose 10 μM
[52] = test system: T-47D (breast cancer); experiment: NCI 60-cell one-dose antiproliferative screen; type: cell-based, human; conditions: one dose 10 μM
[53] = test system: SNB-19 (CNS cancer); experiment: NCI 60-cell one-dose antiproliferative screen; type: cell-based, human; conditions: one dose 10 μM
[54] = test system: UACC-257 (melanoma); experiment: NCI 60-cell one-dose antiproliferative screen; type: cell-based, human; conditions: one dose 10 μM
[55] = test system: COLO-205 (colon cancer); experiment: NCI 60-cell one-dose antiproliferative screen; type: cell-based, human; conditions: one dose 10 μM

Compound: COc1ccc(-c2nnc3ccc(NN=Cc4ccccc4)nn23)cc1 [Compound 4e, 6-(2-Benzylidenehydrazinyl)-3-(4-methoxyphenyl)-[1,2,4]triazolo[4,3-b]pyridazine]
- GI% [1]: — (— GI% is below 15%)
- GI% [2]: — (— GI% is below 15%)
- GI% [3]: — (— GI% is below 15%)
- GI% [4]: — (— GI% is below 15%)
- GI% [5]: — (— GI% is below 15%)
- GI% [6]: — (— GI% is below 15%)
- GI% [7]: — (— GI% is below 15%)
- GI% [8]: — (— GI% is below 15%)
- GI% [9]: — (— GI% is below 15%)
- GI% [10]: — (— GI% is below 15%)
- GI% [11]: — (— GI% is below 15%)
- GI% [12]: 29.15%
- GI% [13]: — (— GI% is below 15%)
- GI% [14]: — (— GI% is below 15%)
- GI% [15]: 34.25%
- GI% [16]: — (— GI% is below 15%)
- GI% [17]: — (— GI% is below 15%)
- GI% [18]: — (— GI% is below 15%)
- GI% [19]: — (— GI% is below 15%)
- GI% [20]: 28.54%
- GI% [21]: — (— GI% is below 15%)
- GI% [22]: — (— GI% is below 15%)
- GI% [23]: — (— GI% is below 15%)
- GI% [24]: — (— GI% is below 15%)
- GI% [25]: — (— GI% is below 15%)
- GI% [26]: — (— GI% is below 15%)
- GI% [27]: — (— GI% is below 15%)
- GI% [28]: — (— GI% is below 15%)
- GI% [29]: — (— GI% is below 15%)
- GI% [30]: — (— GI% is below 15%)
- inhibition at 10 µM [31]: 7.15%
- GI% [32]: — (— GI% is below 15%)
- GI% [33]: 30.10%
- GI% [34]: 34.41%
- GI% [35]: — (— GI% is below 15%)
- GI% [36]: — (— GI% is below 15%)
- GI% [37]: — (— GI% is below 15%)
- GI% [38]: — (— GI% is below 15%)
- GI% [39]: 29.87%
- GI% [40]: — (— GI% is below 15%)
- GI% [41]: 21.90%
- GI% [42]: — (— GI% is below 15%)
- GI% [43]: 22.16%
- GI% [44]: — (— GI% is below 15%)
- GI% [45]: 42.42%
- GI% [46]: — (— GI% is below 15%)
- GI% [47]: 17.17%
- GI% [48]: 17.35%
- GI% [49]: 62.97%
- GI% [50]: — (— GI% is below 15%)
- GI% [51]: — (— GI% is below 15%)
- GI% [52]: — (— GI% is below 15%)
- GI% [53]: 17.10%
- GI% [54]: — (— GI% is below 15%)
- GI% [55]: — (— GI% is below 15%)
